Biological target: Cezanne 1 (Homo sapiens (Human), UniProt Q6GQQ9)
Assay: Cezanne 1 biochemical IC50 assay
Details: FLAG-Cezanne 1 purified from HEK293T cells; fluorescence polarisation, TAMRA labelled peptide linked to ubiquitin; 30 min preincubation, 2 hr read; read-out: IC50 range
Protocol: The Cezanne 1 construct was PCR amplified and cloned into a pFLAG-CMV-6c vector (Sigma-Aldrich) with an N-terminal FLAG tag. HEK293T cells were transfected with FLAG-Cezanne 1 using TransIT-LT1 transfection reagent (Mirus) according to the manufacturer's instructions. Cells were harvested 48 hours after transfection. Cells were washed once with PBS and scraped in lysis buffer (50 mM Tris, pH 7.5, 150 mM NaCl, 3 mM EDTA, 0.5% NP40, 10% glycerol, 5 mM beta-mercaptoethanol, protease inhibitors (complete mini, Roche) and phosphatase inhibitors (PhosSTOP mini, Roche). Lysates were incubated for 30 min on ice and centrifuged at 4000 rpm for 10 min at 4° C. Soluble supernatant was added to FLAG affinity resin (EZview Red ANTI-FLAG M2 affinity gel, Sigma-Aldrich) equilibrated in low salt buffer (20 mM Tris, pH 7.5, 150 mM NaCl, 0.5 mM EDTA, 5 mM beta-mercaptoethanol) and incubated at 4° C. for 3 hours rotating. The resin was spun at 2000 rpm for 2 min and the supernatant was removed. The resin was washed two times with low salt buffer and one time with high salt buffer (20 mM Tris, pH 7.5, 500 mM NaCl, 0.5 mM EDTA, 5 mM beta-mercaptoethanol, protease inhibitors (complete mini, Roche) and phosphatase inhibitors (PhosSTOP mini, Roche). To elute the bound Cezanne 1, elution buffer (10 mM Tris, pH 7.5, 150 mM NaCl, 0.5 mM EDTA, 10% glycerol, 0.5% NP40, 5 mM beta-mercaptoethanol, 0.15 mg/ml 3× FLAG peptide (Sigma-Aldrich)) was added to the resin and incubated at 4° C. for 2.5 hours while rotating. The resin was centrifuged at 4000 rpm for 30 seconds, and the supernatant containing purified FLAG-Cezanne 1 was removed and stored at −80° C.
Dilution plates were prepared at 21 times the final concentration (2100 μM for a final concentration of 100 μM) in 50% DMSO in a 96-well polypropylene V-bottom plate (Greiner #651201). A typical 8-point dilution series to be 100, 30, 10, 3, 1, 0.3, 0.1, […]. Reactions were performed in duplicate in black 384 well plates (small volume, Greiner 784076) in a final reaction volume of 21 μl. Either 1 μl of 50% DMSO or diluted compound was added to the plate. Cezanne 1 was diluted in reaction buffer (40 mM Tris, pH 7.5, 0.005% Tween 20, 0.5 mg/ml BSA, 5 mM—beta-mercaptoethanol) to the equivalent of 0.005 μl/well and 10 μl of diluted Cezanne 1 was added to the compound. Enzyme and compound were incubated for 30 min at room temp. Reactions were initiated by the addition of 50 nM of TAMRA labelled peptide linked to ubiquitin via an iso-peptide bond as fluorescence polarisation substrate. Reactions were read immediately after addition of substrate and following a 2 hr incubation at room temperature. Readings were performed on a Pherastar Plus (BMG Labtech). λ Excitation 540 nm; λ Emission 590 nm.

Cezanne 1, sequence (Q6GQQ9 whole entry): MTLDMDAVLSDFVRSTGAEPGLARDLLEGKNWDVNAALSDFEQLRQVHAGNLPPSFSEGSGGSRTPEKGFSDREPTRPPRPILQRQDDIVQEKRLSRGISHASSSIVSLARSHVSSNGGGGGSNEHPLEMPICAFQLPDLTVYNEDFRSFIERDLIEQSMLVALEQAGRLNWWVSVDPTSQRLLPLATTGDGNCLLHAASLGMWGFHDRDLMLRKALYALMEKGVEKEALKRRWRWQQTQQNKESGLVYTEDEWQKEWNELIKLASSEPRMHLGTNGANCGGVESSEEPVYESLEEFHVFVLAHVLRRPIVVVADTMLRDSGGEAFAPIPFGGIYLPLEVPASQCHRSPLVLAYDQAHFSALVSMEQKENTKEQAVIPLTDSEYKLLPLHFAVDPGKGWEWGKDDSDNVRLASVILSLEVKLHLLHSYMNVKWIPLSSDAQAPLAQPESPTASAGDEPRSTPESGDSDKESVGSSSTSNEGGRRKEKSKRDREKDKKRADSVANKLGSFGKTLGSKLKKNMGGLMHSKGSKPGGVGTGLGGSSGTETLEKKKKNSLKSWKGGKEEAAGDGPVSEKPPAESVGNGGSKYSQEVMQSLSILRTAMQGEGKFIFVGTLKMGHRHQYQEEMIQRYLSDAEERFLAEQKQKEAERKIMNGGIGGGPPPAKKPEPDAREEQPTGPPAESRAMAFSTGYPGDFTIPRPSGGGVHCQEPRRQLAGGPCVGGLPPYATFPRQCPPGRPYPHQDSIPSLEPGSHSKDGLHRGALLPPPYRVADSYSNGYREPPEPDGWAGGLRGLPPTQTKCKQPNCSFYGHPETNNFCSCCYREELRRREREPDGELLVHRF

IC50 | SMILES
0.1 to 1 µM | N#CN1CC[C@](F)(C(=O)Nc2ncc(-c3ccccc3)s2)C1 [Example 9, (R)-1-cyano-3-fluoro-N-(5-phenylthiazol-2-yl) pyrrolidine-3-carboxamide]
0.1 to 1 µM | N#CN1CCC(F)(C(=O)Nc2cc(-c3ccccc3)on2)C1 (stereo not shown) [Example 10, 1-cyano-3-fluoro-N-(5-phenylisoxazol-3-yl)pyrrolidine-3-carboxamide]
1 to 10 µM | N#CN1CCC(F)(C(=O)Nc2ccc3ncccc3c2)C1 (stereo not shown) [Example 5, 1-cyano-3-fluoro-N-(quinolin-6-yl)pyrrolidine-3-carboxamide]
1 to 10 µM | N#Cc1ccc(-n2cnc(NC(=O)[C@@]3(F)CCN(C#N)C3)c2)cc1 [Example 14, (R)-1-cyano-N-(1-(4-cyanophenyl)-1H-imidazol-4-yl)-3-fluoropyrrolidine-3-carboxamide]
0.1 to 1 µM | N#CN1CCC(F)(C(=O)Nc2ncc(-c3ccccc3)s2)C1 (stereo not shown) [Example 8, 1-cyano-3-fluoro-N-(5-phenylthiazol-2-yl) pyrrolidine-3-carboxamide]
1 to 10 µM | N#CN1CCC(F)(C(=O)Nc2cn(-c3ccccc3)cn2)C1 (stereo not shown) [Example 11, 1-cyano-3-fluoro-N-(1-phenyl-1H-imidazol-4-yl)pyrrolidine-3-carboxamide]
0.1 to 1 µM | CNC(=O)c1cccc(-c2cnc(NC(=O)[C@@]3(F)CCN(C#N)C3)s2)c1 [Example 24, (R)-1-cyano-3-fluoro-N-(5-(3-(methylcarbamoyl)phenyl)thiazol-2-yl)pyrrolidine-3-carboxamide]
1 to 10 µM | N#CN1CCC(F)(C(=O)Nc2nc3ccc(-c4cn[nH]c4)cc3s2)C1 (stereo not shown) [Example 16, N-(6-(1H-pyrazol-4-yl)benzo[d]thiazol-2-yl)-1-cyano-3-fluoropyrrolidine-3-carboxamide]
1 to 10 µM | Cc1nc(-c2cccc(NC(=O)C3(F)CCN(C#N)C3)c2)cs1 (stereo not shown) [Example 6, 1-cyano-3-fluoro-N-(3-(2-methylthiazol-4-yl)phenyl)pyrrolidine-3-carboxamide]
1 to 10 µM | N#CN1CCC(F)(C(=O)Nc2cccc(Oc3ccccc3)c2)C1 (stereo not shown) [Example 7, 1-cyano-3-fluoro-N-(3-phenoxyphenyl)pyrrolidine-3-carboxamide]
1 to 10 µM | N#CN1CC[C@@](F)(C(=O)Nc2cnn(-c3ccccc3)c2)C1 [Example 12, (S)-1-cyano-3-fluoro-N-(1-phenyl-1H-pyrazol-4-yl)pyrrolidine-3-carboxamide]
1 to 10 µM | N#CN1CCC(F)(C(=O)Nc2ccc(Cl)c(C(F)(F)F)c2)C1 (stereo not shown) [Example 1, N-(4-chloro-3-(trifluoromethyl)phenyl)-1-cyano-3-fluoropyrrolidine-3-carboxamide]
1 to 10 µM | N#CN1CCC(F)(C(=O)Nc2cnc3ccccc3c2)C1 (stereo not shown) [Example 4, 1-cyano-3-fluoro-N-(quinolin-3-yl)pyrrolidine-3-carboxamide]
1 to 10 µM | CNC(=O)c1cccc(-c2ccc3nc(NC(=O)C4(F)CCN(C#N)C4)sc3c2)c1 (stereo not shown) [Example 29, 1-cyano-3-fluoro-N-(6-(3-(methylcarbamoyl)phenyl)benzo[d]thiazol-2-yl)pyrrolidine-3-carboxamide]
0.1 to 1 µM | N#CN1CCC(F)(C(=O)Nc2cn3cc(-c4ccn[nH]4)ccc3n2)C1 (stereo not shown) [Example 28, N-(6-(1H-pyrazol-5-yl)imidazo[1,2-a]pyridin-2-yl)-1-cyano-3-fluoropyrrolidine-3-carboxamide]
< 0.1 µM | N#CN1CC[C@](F)(C(=O)Nc2cnn(-c3ccccc3)c2)C1 [Example 13, (R)-1-cyano-3-fluoro-N-(1-phenyl-1H-pyrazol-4-yl)pyrrolidine-3-carboxamide]
0.1 to 1 µM | N#CN1CCC(F)(C(=O)Nc2ncc(-c3cccc4[nH]ncc34)s2)C1 (stereo not shown) [Example 18, N-(5-(1H-indazol-4-yl)thiazol-2-yl)-1-cyano-3-fluoropyrrolidine-3-carboxamide]
0.1 to 1 µM | N#CN1CCC(F)(C(=O)Nc2ncc(-c3cccc(-n4ccnc4)c3)s2)C1 (stereo not shown) [Example 25, N-(5-(3-(1H-imidazol-1-yl)phenyl)thiazol-2-yl)-1-cyano-3-fluoropyrrolidine-3-carboxamide]
1 to 10 µM | N#CN1CCC(F)(C(=O)Nc2nc3ccc(-c4ccccc4)cc3s2)C1 (stereo not shown) [Example 17, 1-cyano-3-fluoro-N-(6-phenylbenzo[d]thiazol-2-yl)pyrrolidine-3-carboxamide]
1 to 10 µM | N#CN1CCC(F)(C(=O)Nc2nc(-c3ccccc3)cs2)C1 (stereo not shown) [Example 2, 1-cyano-3-fluoro-N-(4-phenylthiazol-2-yl)pyrrolidine-3-carboxamide]
1 to 10 µM | N#CN1CC[C@](F)(C(=O)Nc2cnn(Cc3ccccc3)c2)C1 [Example 15, (R)—N-(1-benzyl-1H-pyrazol-4-yl)-1-cyano-3-fluoropyrrolidine-3-carboxamide]
0.1 to 1 µM | N#CN1CCC(F)(C(=O)Nc2cc(-c3cccc(-n4ccnc4)c3)no2)C1 (stereo not shown) [Example 26, N-(3-(3-(1H-imidazol-1-yl)phenyl)isoxazol-5-yl)-1-cyano-3-fluoropyrrolidine-3-carboxamide]
0.1 to 1 µM | N#CN1CCC(F)(C(=O)Nc2ncc(-c3cccc(C(N)=O)c3)s2)C1 (stereo not shown) [Example 22, N-(5-(3-carbamoylphenyl)thiazol-2-yl)-1-cyano-3-fluoropyrrolidine-3-carboxamide]
0.1 to 1 µM | N#CN1CC[C@](F)(C(=O)Nc2cc(-c3cccc(-n4ccnc4)c3)no2)C1 [Example 27, (R)—N-(3-(3-(1H-imidazol-1-yl)phenyl)isoxazol-5-yl)-1-cyano-3-fluoropyrrolidine-3-carboxamide]
0.1 to 1 µM | N#CN1CCC(F)(C(=O)Nc2cc(-c3ccccc3)no2)C1 (stereo not shown) [Example 20, 1-cyano-3-fluoro-N-(3-phenylisoxazol-5-yl)pyrrolidine-3-carboxamide]
0.1 to 1 µM | CNC(=O)c1cccc(-c2cnc(NC(=O)C3(F)CCN(C#N)C3)s2)c1 (stereo not shown) [Example 23, 1-cyano-3-fluoro-N-(5-(3-(methylcarbamoyl)phenyl)thiazol-2-yl)pyrrolidine-3-carboxamide]
0.1 to 1 µM | N#CN1CC[C@](F)(C(=O)Nc2cc(-c3ccccc3)no2)C1 [Example 21, (R)-1-cyano-3-fluoro-N-(3-phenylisoxazol-5-yl)pyrrolidine-3-carboxamide]
0.1 to 1 µM | N#CN1CCC(F)(C(=O)Nc2ccc3ncsc3c2)C1 (stereo not shown) [Example 3, N-(benzo[d]thiazol-6-yl)-1-cyano-3-fluoropyrrolidine-3-carboxamide]

Reference: US10590075B2, “Cyanopyrrolidine derivatives as inhibitors for DUBs” (Mission Therapeutics Limited, priority 2015, dated 2020)
